The values below come from patent publication US7094909B2, “HIV protease inhibitors, compositions containing the same, their pharmaceutical uses and materials for their synthesis” (priority 2001, dated 2006).

The structures appear in SMILES notation. Read-outs that look alike come from different tables or passages of the source.

Assay [1] has as its target T1, HIV-1 protease (Q7S mutant form) (Human immunodeficiency virus type 1 group M subtype B, UniProt P04585, Q495S).
T1 construct: made in house
The assay is described as follows: HIV-1 Protease RET assay. The class given is biochemical. A digest of the protocol: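 Q7S HIV-1 protease, refolded from urea, 2 nM active dimer with 5 μM EDANS/DABCYL peptide cleaved at Tyr-Pro; fluorescence 340/490 nm. 12 min at 37 °C in 0.1M sodium acetate pH 4.8, 1M NaCl, 10% DMSO. Ki from Morrison tight-binding fit.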

For assay [2], the system named is HIV-1 (HIV-1 RF, HIV-1 NL4-3) in CEM-SS / MT-2 cells. The assay is described as follows: Cytopathic effect (CPE) inhibition assay (XTT/MTT dye reduction). It is filed as cell-based. A digest of the protocol:
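CEM-SS or MT-2 cells were infected with HIV-1 RF or NL4-3 (moi 0.025–0.819) and plated at 2×10^4 cells/well with half-log compound dilutions for 6 days. Viability was read by XTT formazan at 450 nm after 4 h. EC50 restores formazan to 50% of uninfected untreated cells, CC50 halves it in uninfected cells, and TI = CC50/EC50.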

Setting [3] is: Ave. Ki (nM), RET assay, Q7S enzyme, Morrison tight binding fit.
[4] abbreviates: Human immunodeficiency virus 1, NL43, read-out: Ave CPE EC50.
The mark [5] stands for this setting: Human immunodeficiency virus 1, NL43, unit inferred, read-out: EC50.

In assay [1] (setting [3]), `C=CCNC(=O)[C@H]1N(C(=O)[C@@H](O)[C@H](Cc2ccccc2)NC(=O)COc2c(C)cccc2C)CSC1(C)C` [Example B23, (R)-3-{(2S,3S)-3-[2-(2,6-Dimethyl-phenoxy)-ethanoylamino]-2-hydroxy-4-phenyl-butanoyl}-5,5-dimethyl-thiazolidine-4-carboxylic acid allylamide] registered a Ki of 0.15 nM. Also, in assay [2] (setting [4]), the EC50 came to 294 nM.

`CC1(C)SCN(C(=O)[C@@H](O)[C@H](Cc2ccccc2)NC(=O)CSc2nc[nH]n2)[C@@H]1C(=O)N[C@H]1CCOc2ccccc21` [Example B31, (R)-3-{(2S,3S)-2-Hydroxy-4-phenyl-3-[2-(1H-[1,2,4]triazol-3-ylsulfanyl)-ethanoylamino]-butanoyl}-5,5-dimethyl-thiazolidine-4-carboxylic acid (S)-chroman-4-ylamide]: the Ki in assay [1] (setting [3]) was determined as 4.7 nM. Also, the EC50 in assay [2] (setting [4]) is greater than 1000 nM.

`Cc1c(O)cccc1C(=O)N[C@@H](Cc1ccccc1)[C@H](O)C(=O)N1CSC(C)(C)[C@H]1C(=O)NCc1oc2ccccc2c1C` [Example A54, (R)-3-[(2S,3S)-2-Hydroxy-3-(3-hydroxy-2-methyl-benzoylamino)-4-phenyl-butyryl]-5,5-dimethyl-thiazolidine-4-carboxylic acid (3-methyl-benzofuran-2-ylmethyl)-amide] displayed a Ki in assay [1] (setting [3]) of 4.5 nM. The EC50 in assay [2] (setting [4]) was 1230 nM.

In the case of `Cc1c(O)cccc1C(=O)N[C@@H](Cc1ccccc1)[C@H](O)C(=O)N1CSC(C)(C)[C@H]1C(=O)N[C@@H]1CCCc2sccc21` [Example A49, 3-[2-Hydroxy-3-(3-hydroxy-2-methyl-benzoylamino)-4-phenyl-butyryl]-5,5-dimethyl-thiazolidine-4-carboxylic acid (4,5,6,7-tetrahydro-benzo[b]thiophen-4-yl)-amide], in assay [1] (setting [3]), the Ki worked out at 0.49 nM. The EC50 in assay [2] (setting [4]) came to 161 nM.

`CC1(C)SCN(C(=O)[C@@H](O)[C@H](Cc2ccccc2)NC(=O)c2cccc3c2CCN3)[C@@H]1C(=O)NCc1ccco1` [Example B39, 2,3-Dihydro-1H-indole-4-carboxylic acid ((1S,2S)-1-benzyl-3-{(R)-4-[(furan-2-ylmethyl)-carbamoyl]-5,5-dimethyl-thiazolidin-3-yl}-2-hydroxy-3-oxo-propyl)-amide]: the Ki in assay [1] (setting [3]) came out at 1.9 nM. Further, the EC50 in assay [2] (setting [4]) came to 372 nM.

`Cc1ccccc1CNC(=O)[C@H]1N(C(=O)[C@@H](O)[C@H](Cc2ccccc2)NC(=O)O[C@@H]2CCS[C@@H]2C(C)C)CSC1(C)C` [Example B5, {(1S,2S)-1-Benzyl-3-[(R)-5,5-dimethyl-4-(2-methyl-benzylcarbamoyl)-thiazolidin-3-yl]-2-hydroxy-3-oxo-propyl}-carbamic acid (R)-2-isopropyl-tetrahydro-thiophen-3-yl ester] came in with a Ki in assay [1] (setting [3]) of 1.2 nM. Besides, the EC50 in assay [2] (setting [4]) was 314 nM.

In the case of `C=CCCOC(=O)N[C@@H](Cc1ccccc1)[C@H](O)C(=O)N1CSC(C)(C)[C@H]1C(=O)NCc1ccccc1C` [Example B14, {(1S,2S)-1-Benzyl-3-[(R)-5,5-dimethyl-4-(2-methyl-benzylcarbamoyl)-thiazolidin-3-yl]-2-hydroxy-3-oxo-propyl}-carbamic acid but-3-enyl ester], in assay [1] (setting [3]), affinity was put at a Ki of 2.7 nM. Further, the concentration giving a half-maximal response (EC50) in assay [2] (setting [4]) stood at 1660 nM.

In assay [1] (setting [3]), `Cc1c(O)cccc1C(=O)N[C@@H](Cc1ccccc1)[C@H](O)C(=O)N1CSC(C)(C)[C@H]1C(=O)N1CCCCC1` [Example A34, N-{(1S,2S)-1-Benzyl-3-[(R)-5,5-dimethyl-4-(1-piperidin-1-yl-methanoyl)-thiazolidin-3-yl]-2-hydroxy-3-oxo-propyl}-3-hydroxy-2-methyl-benzamide] registered a Ki of 1.4 nM. Besides, the 50% effective concentration (EC50) in assay [2] (setting [4]) was 386 nM.

With `C=CCNC(=O)[C@H]1N(C(=O)[C@@H](O)[C@H](Cc2ccccc2)NC(=O)c2cccc3[nH]ncc23)CSC1(C)C` [Example B24, 1-H-indazole-4-carboxylic acid [3-(4-allylcarbamoyl-5,5-dimethyl-thiazolidin-3-yl)-1-benzyl-2-hydroxy-3-oxo-propyl]-amide], the Ki in assay [1] (setting [3]) is 8.3 nM. The EC50 in assay [2] (setting [4]) came out at 512 nM.

In turn, `CC1(C)SCN(C(=O)[C@@H](O)[C@H](Cc2ccccc2)NC(=O)c2cccc3c2CCN3)[C@@H]1C(=O)NC[C@H]1CCCO1` [Example B44, 2,3-Dihydro-1H-indole-4-carboxylic acid [(1S,2S)-1-benzyl-3-((R)-5,5-dimethyl-4-{[(R)-1-(tetrahydro-furan-2-yl)methyl]-carbamoyl}-thiazolidin-3-yl)-2-hydroxy-3-oxo-propyl]-amide] had a Ki in assay [1] (setting [3]) of 4.8 nM. Besides, the EC50 in assay [2] (setting [4]) was 660 nM.

For the molecule `Cc1ccccc1CNC(=O)[C@@H]1CCCCN1C(=O)[C@@H](O)[C@H](Cc1ccccc1)NC(=O)c1cccc(O)c1C`, the affinity in assay [1] (Ki, unit inferred), expressed as Ki, was 51.7 nM. Moreover, the EC50 in assay [2] (setting [5]) turned out to be 5870 nM.

Molecule `Cc1ccccc1CNC(=O)[C@H]1N(C(=O)[C@@H](O)[C@H](Cc2ccccc2)NC(=O)N2CC[C@@H](O)C2)CSC1(C)C` [Example B3, 3-(2-hydroxy-3-{[1-(3-hydroxy-pyrrolidin-yl)-methanoyl]-amino}-4-phenyl-butanoyl)-5,5-dimethyl-thiazolidine-4-carboxylic acid-2-methyl-benzylamide] showed a Ki in assay [1] (setting [3]) of 2.5 nM. For the same molecule, in assay [2] (Human immunodeficiency virus 1, NL43, read-out: Ave CPE EC50 (mM)), the EC50 was determined as 905 nM.

Molecule `Cc1ccccc1CNC(=O)[C@@H]1C[C@@H]2CCCC[C@@H]2CN1C[C@@H](O)[C@H](CSc1ccccc1)NC(=O)c1cccc(O)c1C` registered a Ki in assay [1] (Ki, unit inferred) of 6.4 nM. The EC50 in assay [2] (setting [5]) amounted to 901 nM.

In turn, `Cc1cccc(C)c1OCC(=O)N[C@@H](Cc1ccccc1)[C@H](O)C(=O)N1CSC(C)(C)[C@H]1C(=O)NCc1ccccc1Cl` gave a Ki in assay [1] (Ki, unit inferred) of no more than 0.1 nM. Besides, the concentration giving a half-maximal response (EC50) in assay [2] (setting [5]) stood at 1540 nM.

Molecule `Cc1c(F)cccc1C(=O)N[C@@H](Cc1ccccc1)[C@H](O)C(=O)N1CSC(C)(C)[C@H]1C(=O)N[C@H]1CCc2ccccc21` [Example B82, (R)-3-((2S,3S)-3-{[1-(3-Fluoro-2-methyl-phenyl)-methanoyl]-amino}-2-hydroxy-4-phenyl-butanoyl)-5,5-dimethyl-thiazolidine-4-carboxylic acid (S)-indan-1-ylamide] showed a Ki in assay [1] (setting [3]) of 0.19 nM. In addition, the EC50 in assay [2] (setting [4]) is 1290 nM.

Take `Cc1ccccc1CNC(=O)C1N(C(=O)[C@@H](O)[C@H](CSc2ccccc2)NC(=O)c2cccc(O)c2C)CSC1(C)C` (stereo partly shown) [drawing 969]: the Ki in assay [1] (Ki, unit inferred) is 0.25 nM. Also, the EC50 in assay [2] (unit inferred, read-out: EC50) is 879 nM.

`Cc1ccc(C(=O)N[C@@H](Cc2ccccc2)[C@H](O)C(=O)N2CSC(C)(C)C2C(=O)N[C@@H]2C=CCCC2)c(C)c1O` (stereo partly shown) came in with a Ki in assay [1] (Ki, unit inferred) of 0.13 nM. The EC50 in assay [2] (setting [5]) stood at 1160 nM.

`Cc1c(O)cccc1C(=O)N[C@@H](Cc1ccccc1)[C@H](O)C(=O)N1CSC(C)(C)[C@H]1C(=O)N[C@@H]1CCc2ncccc21` [Example A52, 3-[2-Hydroxy-3-(3-hydroxy-2-methyl-benzoylamine)-4-phenyl-butyryl]-5,5-dimethyl-thiazolidine-4-carboxylic acid (6,7-dihydro-5H-[1]pyrindin-5-yl)-amide] showed a Ki in assay [1] (setting [3]) of 0.51 nM. For the same molecule, in assay [2] (setting [4]), the EC50 worked out at 456 nM.

With `CC1(C)SCN(C(=O)[C@@H](O)[C@H](Cc2ccccc2)NC(=O)CSc2nc[nH]n2)[C@@H]1C(=O)N[C@H]1CCc2ccccc21`, affinity in assay [1] (Ki, unit inferred) was put at a Ki of 3.9 nM. For the same molecule, the EC50 in assay [2] (setting [5]) was found to be 1230 nM.

Regarding `Cc1c(O)cccc1C(=O)N[C@@H](Cc1ccccc1)[C@H](O)C(=O)N1CSC(C)(C)[C@H]1C(=O)NCc1cc2ccccc2n1C` [Example A63, (R)-3-[(2S,3S)-2-Hydroxy-3-(3-hydroxy-2-methyl-benzoylamino)-4-phenyl-butyryl]-5,5-dimethyl-thiazolidine-4-carboxylic acid (1-methyl-1H-indol-2-ylmethyl)-amide], the Ki in assay [1] (setting [3]) came out at 4.5 nM. The EC50 in assay [2] (setting [4]) turned out to be 1190 nM.

With `Cc1ccccc1CNC(=O)[C@H]1N(C(=O)[C@@H](O)[C@H](Cc2ccccc2)NC(=O)CCCO)CSC1(C)C` [Example B85], the Ki in assay [1] (setting [3]) was determined as 1.3 nM. For the same molecule, in assay [2] (setting [4]), the EC50 came to 363 nM.

`Cc1ccc(C(=O)N[C@@H](Cc2ccccc2)[C@H](O)C(=O)N2CSC(C)(C)[C@H]2C(=O)NCc2cccs2)c(C)c1O`: the affinity in assay [1] (Ki, unit inferred) corresponds to a Ki of 0.39 nM. Further, the EC50 in assay [2] (setting [5]) was 332 nM.

In assay [1] (setting [3]), `Cc1ccccc1CNC(=O)[C@H]1N(C(=O)[C@@H](O)[C@H](Cc2ccccc2)NC(=O)C2CC2)CSC1(C)C` [Example B15, 3-[(S)-3-(Cyclopropanecarbonyl-amino)-2-hydroxy-4-phenyl-butyryl]-5,5-dimethyl-thiazolidine-4-carboxylic acid 2-methyl-benzylamide] returned a Ki of 1.3 nM. The EC50 in assay [2] (setting [4]) turned out to be 2300 nM.

For the molecule `Cc1ccccc1CNC(=O)[C@@H]1N(C(=O)[C@@H](O)[C@H](Cc2ccccc2)NC(=O)c2cccc(O)c2C)CSC12CCCC2`, affinity in assay [1] (Ki, unit inferred) was put at a Ki of 0.34 nM. Besides, the EC50 in assay [2] (setting [5]) was 40 nM.

`COc1ccc(CNC(=O)N[C@@H](Cc2ccccc2)[C@H](O)C(=O)N2CSC(C)(C)[C@H]2C(=O)NCc2ccccc2C)cc1` [Example B60, 3-{(S)-2-Hydroxy-3-[3-(4-methoxy-benzyl)-ureido]-4phenyl-butyryl}-5,5-dimethyl-thiazolidine-4-carboxylic acid 2-methyl-benzylamide] had a Ki in assay [1] (setting [3]) of 1.1 nM. Also, the EC50 in assay [2] (setting [4]) was greater than 3200 nM.

`Cc1cccc(C)c1OCC(=O)N[C@@H](Cc1ccccc1)[C@H](O)C(=O)N1CSC(C)(C)[C@H]1C(=O)NC[C@H]1CCCO1`: the Ki in assay [1] (Ki, unit inferred) was found to be 4.2 nM. The EC50 in assay [2] (setting [5]) was no less than 1000 nM.
